From PMC3623961, “A Comparative Study of Interaction of Tetracycline with Several Proteins Using Time Resolved Anisotropy, Phosphorescence, Docking and FRET” (PLoS ONE, 2013)
Where a name gives a salt, the structure may show the parent alone.

Legend:
[1] = molecular target: T1, Human serum albumin (HSA) (Homo sapiens, UniProt P02768); experiment: fluorescence enhancement of bound tetracycline, modified Benesi-Hildebrand; settings: read-out: Binding Constant (M^-1) (converted)
T1 construct: gene ALB; mature serum albumin, 585 amino acids, 17 disulfides, single Trp214; purchased from Sigma-Aldrich
From the text: fluorescence enhancement of bound tetracycline, modified Benesi-Hildebrand on Human serum albumin (HSA)

[2] = molecular target: T2, Bovine serum albumin (BSA) (Bos taurus, UniProt P02769); experiment: as above; settings: read-out: Binding Constant (M^-1) (converted)
T2 construct: gene ALB; mature serum albumin, 17 disulfides, Trp134 and Trp213; purchased from Sigma-Aldrich
From the text: fluorescence enhancement of bound tetracycline, modified Benesi-Hildebrand on Bovine serum albumin (BSA)

T2 sequence (P02769 25-607): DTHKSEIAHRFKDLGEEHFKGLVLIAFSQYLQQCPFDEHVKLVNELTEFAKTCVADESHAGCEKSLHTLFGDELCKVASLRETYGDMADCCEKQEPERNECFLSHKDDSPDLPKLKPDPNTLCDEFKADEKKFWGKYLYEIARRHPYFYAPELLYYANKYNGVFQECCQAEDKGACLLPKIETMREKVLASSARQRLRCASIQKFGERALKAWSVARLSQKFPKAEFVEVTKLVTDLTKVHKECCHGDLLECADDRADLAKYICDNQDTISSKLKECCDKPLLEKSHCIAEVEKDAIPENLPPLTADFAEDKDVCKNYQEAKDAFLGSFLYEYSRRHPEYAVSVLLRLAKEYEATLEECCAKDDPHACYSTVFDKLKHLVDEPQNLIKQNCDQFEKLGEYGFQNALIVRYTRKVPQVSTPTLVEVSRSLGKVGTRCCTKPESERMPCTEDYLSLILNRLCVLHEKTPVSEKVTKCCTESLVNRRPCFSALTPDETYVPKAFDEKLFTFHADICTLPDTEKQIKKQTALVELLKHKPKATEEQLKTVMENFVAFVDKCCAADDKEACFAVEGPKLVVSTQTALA
T1 sequence (P02768 25-609): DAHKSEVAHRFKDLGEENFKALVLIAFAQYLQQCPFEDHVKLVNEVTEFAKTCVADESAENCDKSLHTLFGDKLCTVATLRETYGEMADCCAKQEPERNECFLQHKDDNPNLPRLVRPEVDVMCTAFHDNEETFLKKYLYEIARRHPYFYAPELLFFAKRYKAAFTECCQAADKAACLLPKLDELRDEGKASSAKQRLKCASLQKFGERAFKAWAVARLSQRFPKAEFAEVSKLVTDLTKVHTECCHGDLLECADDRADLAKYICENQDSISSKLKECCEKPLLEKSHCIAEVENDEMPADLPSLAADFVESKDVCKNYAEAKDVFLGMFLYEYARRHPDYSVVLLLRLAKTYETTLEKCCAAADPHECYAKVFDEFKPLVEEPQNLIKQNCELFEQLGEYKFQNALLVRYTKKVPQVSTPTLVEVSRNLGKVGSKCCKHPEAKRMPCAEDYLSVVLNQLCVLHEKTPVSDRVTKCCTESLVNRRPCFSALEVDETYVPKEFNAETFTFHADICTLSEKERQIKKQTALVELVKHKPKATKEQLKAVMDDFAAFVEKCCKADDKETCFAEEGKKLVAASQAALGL

CN(C)[C@@H]1C(O)=C(C(N)=O)C(=O)[C@@]2(O)C(O)=C3C(=O)c4c(O)cccc4[C@@](C)(O)[C@H]3C[C@@H]12 [Tetracycline hydrochloride]
Kd [1]: 31.8 µM | Kd [2]: 21.2 µM
